Where two headings read alike, the source gives them in different places.
Key:
[1] = tested on: Karpas422 cells; experiment: Tumor cell growth inhibition assay; type: cell-based; conditions: Homo sapiens, KARPAS-422, 144 h
Procedure, shortened: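 Growth inhibition was measured by ATPlite luminescence after six days of culture at 37° C. in 5% CO2. Karpas422 cells were seeded at 2,000 per well in Alpha-MEM plus 10% FBS. Compounds were given as a 10-point concentration series with a highest dose of 5 uM.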

[2] = tested on: BCL6 reporter construct (3xBCL6-TK-Luc) in SuDHL4 cells; experiment: Cell-based luciferase assay
Procedure, shortened: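 SuDHL4 cells stably carrying a 3×BCL6-site TK-promoter firefly luciferase reporter, seeded at 15,000 cells/well, were dosed over a 10-point range (top 10 uM) and grown two days at 37 °C, 5% CO2. Luminescence then read after adding neolite reagent at room temperature.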

[3] = target: BCL6 BTB domain (Homo sapiens (Human), UniProt P41182); experiment: Surface plasmon resonance (SPR) assay; type: binding; conditions: BCL6 BTB domain captured on SA chip, single cycle kinetics
[4] = read-out: Tumor Growth Inhibition in Karpas-422 (IC50, uM), Karpas422 cells, six days, ATPlite
[5] = Homo sapiens, SU-DHL-4, 48 h, read-out: Luciferase-Assay EC50, uM), SuDHL4-3xBCL6-TK-Luc cells, two days, high dose 10 uM

Structure (SMILES)	IC50 [1, 4] [µM]	EC50 [2, 5] [µM]	Kd [3] [nM]	IC50 ([1]; Karpas422 cells, six days, ATPlite, read-out: Tumor Growth Inhibition in Karpas-422 (IC50)) [µM]	EC50 ([2]; Homo sapiens, SU-DHL-4, 48 h, SuDHL4-3xBCL6-TK-Luc cells, two days, high dose 10 uM, read-out: Luciferase-Assay EC50) [µM]
C[C@H]1CN(C)CCN1c1cc(NC(=O)Cn2cc(-c3cc(Cl)c(O)c(C(N)=O)c3)c3c(=O)[nH]c(-c4ccccc4)nc32)c(Cl)cn1 [Compound I-261, (S)-3-chloro-5-(7-(2-((5-chloro-2-(2,4-dimethylpiperazin-1-yl)pyridin-4-yl)amino)-2-oxoethyl)-4-oxo-2-phenyl-4,7-dihydro-3H-pyrrolo[2,3-d]pyrimidin-5-yl)-2-hydroxybenzamide]	0.225	0.65	39.8	–	–
C[C@H]1COCCN1c1cc(NC(=O)Cn2cc(-c3cc(Cl)c(O)c(C(N)=O)c3)c3c(=O)n(C)c(Cl)nc32)c(Cl)cn1 [Compound I-262]	0.389	0.468	22.8	–	–
C[C@@H]1COC[C@H](C)N1c1cc(NC(=O)Cn2cc(-c3cc(Cl)c(O)c(C(N)=O)c3)c3c(=O)n(C)cnc32)c(Cl)cn1 [Compound I-264]	0.376	0.347	30.3	–	–
C[C@H]1CN(C)CCN1c1cc(NC(=O)Cn2cc(-c3cc(C(N)=O)c(O)c(Cl)c3F)c3c(=O)n(C)c(C(F)(F)F)nc32)c(Cl)cn1 [Compound I-267]	3.79	2.27	582	–	–
CCN(C)c1nc2c(c(-c3cc(Cl)c(O)c(C(N)=O)c3)cn2CC(=O)Nc2cc(N3CCOC[C@@H]3C)ncc2Cl)c(=O)n1C [Compound I-269, (S)-3-chloro-5-(7-(2-((5-chloro-2-(3-methylmorpholino)pyridin-4-yl)amino)-2-oxoethyl)-2-(ethyl(methyl)amino)-3-methyl-4-oxo-4,7-dihydro-3H-pyrrolo[2,3-d]pyrimidin-5-yl)-2-hydroxybenzamide]	1.7	8.55	157	–	–
C[C@H]1COCCN1c1cc(NC(=O)Cn2cc(-c3cc(Cl)c(O)c(C(N)=O)c3)c3c(=O)n(C)c(N4CCC4)nc32)c(Cl)cn1 [Compound I-270, (S)-5-(2-(azetidin-1-yl)-7-(2-((5-chloro-2-(3-methylmorpholino)pyridin-4-yl)amino)-2-oxoethyl)-3-methyl-4-oxo-4,7-dihydro-3H-pyrrolo[2,3-d]pyrimidin-5-yl)-3-chloro-2-hydroxybenzamide]	3.82	2.31	63	–	–
CC(C)N1CCN(c2cc(NC(=O)Cn3cc(-c4cc(Cl)c(O)c(C(N)=O)c4)c4c(=O)n(C)cnc43)c(Cl)cn2)[C@@H](C)C1 [Compound I-271]	0.22	0.208	16	–	–
Cc1nc2c(c(-c3cc(Cl)c(O)c(C(N)=O)c3)cn2CC(=O)Nc2cc(N3CCN(C(C)C)C[C@@H]3C)ncc2Cl)c(=O)n1C [Compound I-272]	0.145	0.133	14.8	–	–
Cn1cnc2c(c(-c3cc(F)c(O)c(C(N)=O)c3)cn2CC(=O)Nc2cc(N3CCCC3)ncc2Cl)c1=O [Compound I-273]	0.251	0.416	5.31	–	–
CC(C)N1CCN(c2cc(NC(=O)Cn3cc(-c4cc(Cl)c(O)c(C(N)=O)c4)c4c(=O)n(C)c(C(F)(F)F)nc43)c(Cl)cn2)[C@@H](C)C1 [Compound I-274]	0.332	0.669	138	–	–
Cn1cnc2c(c(-c3cc(F)c(O)c(C(N)=O)c3)cn2CC(=O)Nc2cc(N3CC4COCC4C3)ncc2Cl)c1=O (stereo not drawn) [Compound I-275]	0.137	0.209	4.76	–	–
CN1CCC2CN(c3cc(NC(=O)Cn4cc(-c5cc(F)c(O)c(C(N)=O)c5)c5c(=O)n(C)cnc54)c(Cl)cn3)CC21 (stereo not drawn) [Compound I-276]	0.355	1.1	33.1	–	–
Cn1cnc2c(c(-c3cc(Cl)c(O)c(C(N)=O)c3)cn2CC(=O)Nc2cc(N3CCOC4COCC43)ncc2Cl)c1=O (stereo not drawn) [Compound I-277]	0.255	0.418	21	–	–
Cn1cnc2c(c(-c3cc(Cl)c(O)c(C(N)=O)c3)cn2CC(=O)Nc2cc(N3CC4CCC(F)(F)C4C3)ncc2Cl)c1=O (stereo not drawn) [Compound I-278]	1.13	0.622	42.5	–	–
Cn1cnc2c(c(-c3cc(Cl)c(O)c(C(N)=O)c3)cn2CC(=O)Nc2cc(N3C4CCC3COC4)ncc2Cl)c1=O [Compound I-279]	0.197	0.468	10.2	–	–
Cn1cnc2c(c(-c3cc(Cl)c(O)c(C(N)=O)c3)cn2CC(=O)Nc2cc(N3CCOC4CCCC43)ncc2Cl)c1=O (stereo not drawn) [Compound I-280]	0.821	1.4	101	–	–

Structure (SMILES)	IC50 [1, 4] [µM]	EC50 [2, 5] [µM]	Kd [3] [nM]	IC50 ([1]; Karpas422 cells, six days, ATPlite, read-out: Tumor Growth Inhibition in Karpas-422 (IC50)) [µM]	EC50 ([2]; Homo sapiens, SU-DHL-4, 48 h, SuDHL4-3xBCL6-TK-Luc cells, two days, high dose 10 uM, read-out: Luciferase-Assay EC50) [µM]
Cn1cnc2c(c(-c3cc(Cl)c(O)c(C(N)=O)c3)cn2CC(=O)Nc2cc(N3C4COCC5CC543)ncc2Cl)c1=O (stereo not drawn) [Compound I-281]	–	–	60.8	2.18	2.88
Cn1cnc2c(c(-c3cc(Cl)c(O)c(C(N)=O)c3)cn2CC(=O)Nc2cc(N3CC4CC(C3)O4)ncc2Cl)c1=O [Compound I-282]	0.489	0.669	21.3	–	–
CN1C2CCC1CN(c1cc(NC(=O)Cn3cc(-c4cc(F)c(O)c(C(N)=O)c4)c4c(=O)n(C)cnc43)c(Cl)cn1)C2 [Compound I-283]	0.282	0.222	16.7	–	–
Cn1cnc2c(c(-c3cc(F)c(O)c(C(N)=O)c3)cn2CC(=O)Nc2cc(N3CC4CC3CO4)ncc2Cl)c1=O (stereo not drawn) [Compound I-284]	0.75	0.628	23.4	–	–
CN1C2CCC1CN(c1cc(NC(=O)Cn3cc(-c4cc(C(N)=O)c(O)c(F)c4F)c4c(=O)n(C)cnc43)c(Cl)cn1)C2 [Compound I-285]	1.6	1.6	102	–	–
Cn1cnc2c(c(-c3cc(C(N)=O)c(O)c(F)c3F)cn2CC(=O)Nc2cc(N3CC4CC3CO4)ncc2Cl)c1=O (stereo not drawn) [Compound I-286]	1.54	1.96	83.7	–	–
CN1CC2CN(c3cc(NC(=O)Cn4cc(-c5cc(F)c(O)c(C(N)=O)c5)c5c(=O)n(C)cnc54)c(Cl)cn3)CC2C1 (stereo not drawn) [Compound I-287]	1.44	1.71	18.6	–	–
CN(C)c1cc(NC(=O)Cn2cc(-c3cc(F)c(O)c(C(N)=O)c3)c3c(=O)n(C)cnc32)c(Cl)cn1 [Compound I-288]	0.128	0.181	9.47	–	–
CN1CCCN(c2cc(NC(=O)Cn3cc(-c4cc(F)c(O)c(C(N)=O)c4)c4c(=O)n(C)cnc43)c(Cl)cn2)CC1 [Compound I-289]	0.652	1.18	16	–	–
COc1cc(NC(=O)Cn2cc(-c3cc(Cl)c(O)c(C(N)=O)c3)c3c(=O)n(C)c(O)nc32)c(Cl)cn1 [Compound I-290]	10	10	18400	–	–
CN(C)c1cc(NC(=O)Cn2cc(-c3cc(Cl)c(O)c(C(N)=O)c3)c3c(=O)n(C)c(Cl)nc32)c(Cl)cn1 [Compound I-292]	0.575	1.66	81.2	–	–
CN(C)c1cc(NC(=O)Cn2cc(-c3cc(Cl)c(O)c(C(N)=O)c3)c3c(=O)[nH]c(Cl)nc32)c(Cl)cn1 [Compound I-293]	2.44	10	18.3	–	–
C[C@H]1COCCN1c1cc(NC(=O)Cn2cc(-c3cc(Cl)c(O)c(C(N)=O)c3)c3c(=O)[nH]c(Cl)nc32)c(Cl)cn1 [Compound I-294]	1.88	1.43	9.95	–	–
CC(C)N1CCN(c2cc(NC(=O)Cn3cc(-c4cc(F)c(O)c(C(N)=O)c4)c4c(=O)n(C)cnc43)c(Cl)cn2)[C@@H](C)C1 [Compound I-295]	0.106	0.14	7.84	–	–
C[C@H]1CN(C2CC2)CCN1c1cc(NC(=O)Cn2cc(-c3cc(Cl)c(O)c(C(N)=O)c3)c3c(=O)n(C)cnc32)c(Cl)cn1 [Compound I-296]	0.209	0.271	33.4	–	–
CN(C)c1cc(NC(=O)Cn2cc(-c3cc(C(N)=O)c(O)c(F)c3F)c3c(=O)n(C)cnc32)c(Cl)cn1 [Compound I-297]	0.846	0.395	57.9	–	–

From patent US11518764B2, “Substituted heteroaryls as inhibitors of the BCL6 BTB domain protein-protein interaction” (Ontario Institute for Cancer Research (OICR), priority 2018, dated 2022)
